Data from patent US20170320870A1 (Medical Research Council Technology, priority 2009, published 2017).
pIC50: −log10 of the molar value.

Target: T1, LRRK2 wild type (recombinant human, catalytic domain amino acids 970-2527, GST-tagged) (Homo sapiens, UniProt Q5S007)
T1 construct: The wild type used was recombinant human, catalytic domain (amino acids 970-2527) GST-tagged, expressed in insect cells; GST; purchased Invitrogen Corporation PV4873; host or cells: insect cells
Test: LRRK2 wild type protein kinase assay ([γ-33P] ATP, peptide substrate […]), IC50
Format: biochemical
Conditions: LRRK2 (variant not given); read-out: Potency score, LRRK2 IC50
How it was run: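 IC50 derived from duplicate 10-point titrations, with 33P incorporation into a 100 μM peptide counted after P81 filter capture. Roughly 5 nM unactivated kinase reacted with Mg/[γ-33P]ATP for 180 min at room temperature (~21 °C), pH 7.5 Tris buffer containing 10 mM MgCl2, EGTA and DTT; acid-quenched.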

T1 sequence (Q5S007 970-2527): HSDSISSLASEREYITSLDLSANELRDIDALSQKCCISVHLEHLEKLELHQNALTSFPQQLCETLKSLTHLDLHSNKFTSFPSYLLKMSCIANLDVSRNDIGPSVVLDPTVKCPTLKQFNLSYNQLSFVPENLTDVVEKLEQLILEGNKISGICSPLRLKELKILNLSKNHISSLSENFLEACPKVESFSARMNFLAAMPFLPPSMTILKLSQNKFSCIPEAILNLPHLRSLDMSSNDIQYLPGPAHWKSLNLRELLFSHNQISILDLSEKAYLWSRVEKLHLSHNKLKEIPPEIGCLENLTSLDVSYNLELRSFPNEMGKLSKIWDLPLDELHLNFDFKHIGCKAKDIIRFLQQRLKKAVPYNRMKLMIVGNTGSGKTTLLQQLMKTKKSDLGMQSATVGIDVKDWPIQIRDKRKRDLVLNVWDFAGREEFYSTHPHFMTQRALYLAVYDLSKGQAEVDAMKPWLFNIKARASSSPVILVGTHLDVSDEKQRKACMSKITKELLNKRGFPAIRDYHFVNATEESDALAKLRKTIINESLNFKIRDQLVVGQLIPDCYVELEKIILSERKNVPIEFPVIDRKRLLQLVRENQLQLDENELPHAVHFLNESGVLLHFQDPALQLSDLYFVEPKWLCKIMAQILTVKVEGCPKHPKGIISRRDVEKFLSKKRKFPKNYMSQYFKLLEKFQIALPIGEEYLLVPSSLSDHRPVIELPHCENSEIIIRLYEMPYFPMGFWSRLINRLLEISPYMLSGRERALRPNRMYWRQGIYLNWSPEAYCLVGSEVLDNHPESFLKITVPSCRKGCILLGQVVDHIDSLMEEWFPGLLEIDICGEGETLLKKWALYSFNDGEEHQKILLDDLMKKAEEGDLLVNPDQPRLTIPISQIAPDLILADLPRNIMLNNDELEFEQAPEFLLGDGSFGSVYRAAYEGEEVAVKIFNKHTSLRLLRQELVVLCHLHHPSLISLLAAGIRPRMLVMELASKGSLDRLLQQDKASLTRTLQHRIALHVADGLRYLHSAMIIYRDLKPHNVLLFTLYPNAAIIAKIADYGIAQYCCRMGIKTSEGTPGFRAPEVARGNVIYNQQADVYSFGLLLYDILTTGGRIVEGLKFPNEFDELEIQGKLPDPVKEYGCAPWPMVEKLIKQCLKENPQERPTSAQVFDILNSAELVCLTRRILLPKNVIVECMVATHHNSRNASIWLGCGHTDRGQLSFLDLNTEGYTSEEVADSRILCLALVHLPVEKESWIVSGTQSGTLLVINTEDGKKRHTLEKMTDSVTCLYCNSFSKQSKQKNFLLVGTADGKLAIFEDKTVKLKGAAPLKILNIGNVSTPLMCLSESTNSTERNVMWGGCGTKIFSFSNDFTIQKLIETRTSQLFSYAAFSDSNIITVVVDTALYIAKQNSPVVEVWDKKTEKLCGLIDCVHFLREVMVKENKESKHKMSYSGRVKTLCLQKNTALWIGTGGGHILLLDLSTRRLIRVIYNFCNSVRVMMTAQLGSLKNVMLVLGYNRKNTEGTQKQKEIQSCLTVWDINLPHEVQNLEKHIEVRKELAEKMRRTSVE

pIC50	SMILES
5.00 to 6.00	Cc1n[nH]c2ccnc(Nc3ccc4nccnc4c3)c12 [Example 352, (3-Methyl-1H-pyrazolo[4,3-c]pyridin-4-yl)-quinoxalin-6-yl-amine]
5.00 to 6.00	Cc1n[nH]c2ccnc(Nc3cccc(-c4nnco4)c3)c12 [Example 353]
